ChEMBL document CHEMBL1152764, “Penicilliols A and B, novel inhibitors specific to mammalian Y-family DNA polymerases” (Bioorg Med Chem, 2009)
Active and inactive are the calls of the source. No cut-off for these calls is given here.

How the values were obtained:
[1] = biological target: T1, DNA polymerase kappa (Homo sapiens) (UniProt Q9UBT6); assay: Inhibition of human DNA polymerase kappa
T1 sequence (whole entry): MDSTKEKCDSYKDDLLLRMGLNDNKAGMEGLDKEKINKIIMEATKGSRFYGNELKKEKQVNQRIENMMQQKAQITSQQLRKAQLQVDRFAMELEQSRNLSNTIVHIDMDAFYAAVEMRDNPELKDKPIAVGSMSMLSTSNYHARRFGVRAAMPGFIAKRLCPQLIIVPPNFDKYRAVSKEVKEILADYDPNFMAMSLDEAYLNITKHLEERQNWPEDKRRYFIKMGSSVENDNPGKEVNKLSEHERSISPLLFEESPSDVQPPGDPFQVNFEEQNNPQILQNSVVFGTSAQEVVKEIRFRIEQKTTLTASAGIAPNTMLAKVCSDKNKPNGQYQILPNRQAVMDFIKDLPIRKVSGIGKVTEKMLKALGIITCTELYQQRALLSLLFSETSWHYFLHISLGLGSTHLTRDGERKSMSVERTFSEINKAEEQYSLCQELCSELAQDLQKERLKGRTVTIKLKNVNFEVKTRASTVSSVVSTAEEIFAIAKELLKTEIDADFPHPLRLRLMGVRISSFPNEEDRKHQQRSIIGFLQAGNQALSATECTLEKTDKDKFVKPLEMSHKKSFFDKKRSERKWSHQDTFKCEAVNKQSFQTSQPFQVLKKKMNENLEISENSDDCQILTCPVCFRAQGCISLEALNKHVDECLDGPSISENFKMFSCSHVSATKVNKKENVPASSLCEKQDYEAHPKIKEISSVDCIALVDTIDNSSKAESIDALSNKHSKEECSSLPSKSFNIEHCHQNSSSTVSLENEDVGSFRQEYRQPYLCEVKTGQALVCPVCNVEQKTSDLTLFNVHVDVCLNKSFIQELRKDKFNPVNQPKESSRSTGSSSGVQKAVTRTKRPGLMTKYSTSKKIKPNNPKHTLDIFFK

[2] = biological target: T2, DNA polymerase iota (Mus musculus) (UniProt Q6R3M4); assay: Inhibition of mouse DNA polymerase iota
T2 sequence (whole entry): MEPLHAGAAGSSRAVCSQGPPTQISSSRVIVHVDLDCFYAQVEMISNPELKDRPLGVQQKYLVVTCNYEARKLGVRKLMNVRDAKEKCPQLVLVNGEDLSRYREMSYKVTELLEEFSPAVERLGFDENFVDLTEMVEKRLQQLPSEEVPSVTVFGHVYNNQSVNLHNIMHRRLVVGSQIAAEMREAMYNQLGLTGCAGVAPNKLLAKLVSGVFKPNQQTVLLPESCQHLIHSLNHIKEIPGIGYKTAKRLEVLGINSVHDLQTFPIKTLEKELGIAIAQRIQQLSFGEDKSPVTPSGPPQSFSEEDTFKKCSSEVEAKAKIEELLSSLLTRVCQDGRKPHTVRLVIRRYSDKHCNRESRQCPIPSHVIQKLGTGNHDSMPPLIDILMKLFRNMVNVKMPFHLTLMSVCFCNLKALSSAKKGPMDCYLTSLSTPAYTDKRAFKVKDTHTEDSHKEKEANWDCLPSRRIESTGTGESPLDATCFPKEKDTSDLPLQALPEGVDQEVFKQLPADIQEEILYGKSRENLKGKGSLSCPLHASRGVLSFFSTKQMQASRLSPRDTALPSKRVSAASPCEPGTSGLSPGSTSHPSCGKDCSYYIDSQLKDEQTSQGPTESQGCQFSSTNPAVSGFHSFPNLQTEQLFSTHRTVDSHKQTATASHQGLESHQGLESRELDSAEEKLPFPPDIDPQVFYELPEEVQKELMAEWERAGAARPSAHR

[3] = biological target: T3, DNA polymerase eta (Homo sapiens) (UniProt Q9Y253); assay: Inhibition of human DNA polymerase eta
T3 sequence (whole entry): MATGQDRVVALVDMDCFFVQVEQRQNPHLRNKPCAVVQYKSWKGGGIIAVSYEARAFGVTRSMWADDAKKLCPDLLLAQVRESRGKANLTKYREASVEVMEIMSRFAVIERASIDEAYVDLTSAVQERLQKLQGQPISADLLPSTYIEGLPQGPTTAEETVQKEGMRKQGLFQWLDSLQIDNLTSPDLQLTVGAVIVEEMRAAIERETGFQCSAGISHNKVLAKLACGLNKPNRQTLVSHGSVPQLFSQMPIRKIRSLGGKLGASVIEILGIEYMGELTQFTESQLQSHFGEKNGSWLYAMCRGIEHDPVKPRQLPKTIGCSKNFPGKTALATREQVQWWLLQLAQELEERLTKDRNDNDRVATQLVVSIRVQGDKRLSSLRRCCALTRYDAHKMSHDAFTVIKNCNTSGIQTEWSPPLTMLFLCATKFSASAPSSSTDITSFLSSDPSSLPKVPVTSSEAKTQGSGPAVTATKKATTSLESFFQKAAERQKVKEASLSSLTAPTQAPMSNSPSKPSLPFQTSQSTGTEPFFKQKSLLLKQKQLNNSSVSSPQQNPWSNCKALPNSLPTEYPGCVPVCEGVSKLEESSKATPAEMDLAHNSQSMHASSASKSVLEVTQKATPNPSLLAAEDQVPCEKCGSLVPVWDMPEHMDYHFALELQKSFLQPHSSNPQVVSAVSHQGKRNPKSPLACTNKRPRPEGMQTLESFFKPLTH

[4] = biological target: T1, DNA polymerase kappa (Homo sapiens); assay: Inhibition of human DNA polymerase kappa at 100 uM
[5] = biological target: T2, DNA polymerase iota (Mus musculus); assay: Inhibition of mouse DNA polymerase iota at 100 uM
[6] = biological target: T3, DNA polymerase eta (Homo sapiens); assay: Inhibition of human DNA polymerase eta at 100 uM
Homo sapiens [7] = species on record: Homo sapiens; assay: Inhibition of human DNA polymerase gamma at 100 uM
Bos taurus [8] = species on record: Bos taurus; assay: Inhibition of calf DNA polymerase alpha at 100 uM
Homo sapiens [9] = species on record: Homo sapiens; assay: Inhibition of human DNA polymerase delta at 100 uM
Homo sapiens [10] = species on record: Homo sapiens; assay: Inhibition of human DNA polymerase epsilon at 100 uM
[11] = biological target: DNA polymerase beta (Rattus norvegicus) (UniProt P06766); assay: Inhibition of rat DNA polymerase beta at 100 uM
[12] = biological target: DNA polymerase lambda (Homo sapiens) (UniProt Q9UGP5); assay: Inhibition of human DNA polymerase lambda at 100 uM
[13] = biological target: DNA nucleotidylexotransferase (Bos taurus) (UniProt P06526); assay: Inhibition of calf terminal deoxynucleotidyltransferase at 100 uM
Oncorhynchus masou = assay: Inhibition of cherry salmon DNA polymerase delta at 100 uM
Drosophila melanogaster [14] = assay: Inhibition of fruit fly DNA polymerase alpha at 100 uM
Drosophila melanogaster [15] = assay: Inhibition of fruit fly DNA polymerase delta at 100 uM
Drosophila melanogaster [16] = assay: Inhibition of fruit fly DNA polymerase epsilon at 100 uM
[17] = system: Brassica oleracea var. botrytis; assay: Inhibition of cauliflower DNA polymerase alpha at 100 uM
Escherichia coli = assay: Inhibition of Escherichia coli DNA polymerase 1 Klenow fragment at 100 uM
[18] = biological target: DNA-directed DNA polymerase (Enterobacteria phage T4) (UniProt P04415); assay: Inhibition of Enterobacteria phage T4 DNA polymerase at 100 uM; details: Tequatrovirus T4
Thermus aquaticus = assay: Inhibition of Taq DNA polymerase at 100 uM
Bos taurus [19] = species on record: Bos taurus; assay: Inhibition of calf primase of DNA polymerase alpha at 100 uM
[20] = biological target: Human immunodeficiency virus type 1 reverse transcriptase (Human immunodeficiency virus 1) (UniProt Q72547); assay: Inhibition of HIV-1 reverse transcriptase at 100 uM
[21] = biological target: Telomerase reverse transcriptase (Homo sapiens) (UniProt O14746); assay: Inhibition of human telomerase at 100 uM
Escherichia phage T7 = assay: Inhibition of Enterobacteria phage T7 RNA polymerase at 100 uM
[22] = biological target: Inosine-5'-monophosphate dehydrogenase 2 (Mus musculus) (UniProt P24547); assay: Inhibition of mouse IMP dehydrogenase 2 at 100 uM
[23] = biological target: DNA topoisomerase 1 (Homo sapiens) (UniProt P11387); assay: Inhibition of human DNA topoisomerase 1 at 100 uM
Homo sapiens [24] = species on record: Homo sapiens; assay: Inhibition of human DNA topoisomerase 2 at 100 uM
[25] = biological target: Polynucleotide kinase (Enterobacteria phage T4) (UniProt P06855); assay: Inhibition of Enterobacteria phage T4 Polynucleotide kinase at 100 uM; details: Tequatrovirus T4
[26] = biological target: Deoxyribonuclease-1 (Bos taurus) (UniProt P00639); assay: Inhibition of bovine deoxyribonuclease 1 at 100 uM
Oryza sativa = assay: Inhibition of rice DNA polymerase lambda at 100 uM

DNA-directed DNA polymerase (Enterobacteria phage T4), sequence (P04415 whole entry): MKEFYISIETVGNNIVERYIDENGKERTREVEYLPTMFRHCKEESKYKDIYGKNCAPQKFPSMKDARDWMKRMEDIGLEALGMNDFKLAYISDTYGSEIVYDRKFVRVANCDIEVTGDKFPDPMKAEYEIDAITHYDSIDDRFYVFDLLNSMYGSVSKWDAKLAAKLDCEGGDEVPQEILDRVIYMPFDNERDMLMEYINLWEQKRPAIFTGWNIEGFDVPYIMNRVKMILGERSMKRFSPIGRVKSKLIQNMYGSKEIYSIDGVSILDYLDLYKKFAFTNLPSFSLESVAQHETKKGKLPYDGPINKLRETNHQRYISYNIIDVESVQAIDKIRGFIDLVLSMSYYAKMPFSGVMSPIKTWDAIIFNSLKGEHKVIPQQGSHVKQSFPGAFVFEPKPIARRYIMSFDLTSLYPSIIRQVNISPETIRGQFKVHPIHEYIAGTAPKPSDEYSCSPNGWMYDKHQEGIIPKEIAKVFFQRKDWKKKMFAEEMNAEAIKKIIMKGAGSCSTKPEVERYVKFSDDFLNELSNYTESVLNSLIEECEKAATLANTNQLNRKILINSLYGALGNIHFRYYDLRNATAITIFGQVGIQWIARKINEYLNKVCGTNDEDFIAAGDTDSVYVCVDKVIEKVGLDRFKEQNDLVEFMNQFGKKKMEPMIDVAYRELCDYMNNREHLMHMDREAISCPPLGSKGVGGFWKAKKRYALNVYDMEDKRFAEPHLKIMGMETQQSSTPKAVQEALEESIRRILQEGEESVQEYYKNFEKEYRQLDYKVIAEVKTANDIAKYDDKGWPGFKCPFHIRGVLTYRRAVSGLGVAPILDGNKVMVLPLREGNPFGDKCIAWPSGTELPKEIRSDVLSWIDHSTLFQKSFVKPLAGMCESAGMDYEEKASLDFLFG
Deoxyribonuclease-1 (Bos taurus), sequence (P00639 whole entry): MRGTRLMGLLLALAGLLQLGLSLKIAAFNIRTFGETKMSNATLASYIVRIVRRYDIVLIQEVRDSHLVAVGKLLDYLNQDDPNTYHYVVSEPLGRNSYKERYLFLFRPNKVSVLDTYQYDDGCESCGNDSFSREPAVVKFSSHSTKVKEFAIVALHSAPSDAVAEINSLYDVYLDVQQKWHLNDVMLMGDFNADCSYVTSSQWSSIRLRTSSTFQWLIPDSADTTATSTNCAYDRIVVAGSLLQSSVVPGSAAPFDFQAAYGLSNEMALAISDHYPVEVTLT
DNA topoisomerase 1 (Homo sapiens), sequence (P11387 whole entry): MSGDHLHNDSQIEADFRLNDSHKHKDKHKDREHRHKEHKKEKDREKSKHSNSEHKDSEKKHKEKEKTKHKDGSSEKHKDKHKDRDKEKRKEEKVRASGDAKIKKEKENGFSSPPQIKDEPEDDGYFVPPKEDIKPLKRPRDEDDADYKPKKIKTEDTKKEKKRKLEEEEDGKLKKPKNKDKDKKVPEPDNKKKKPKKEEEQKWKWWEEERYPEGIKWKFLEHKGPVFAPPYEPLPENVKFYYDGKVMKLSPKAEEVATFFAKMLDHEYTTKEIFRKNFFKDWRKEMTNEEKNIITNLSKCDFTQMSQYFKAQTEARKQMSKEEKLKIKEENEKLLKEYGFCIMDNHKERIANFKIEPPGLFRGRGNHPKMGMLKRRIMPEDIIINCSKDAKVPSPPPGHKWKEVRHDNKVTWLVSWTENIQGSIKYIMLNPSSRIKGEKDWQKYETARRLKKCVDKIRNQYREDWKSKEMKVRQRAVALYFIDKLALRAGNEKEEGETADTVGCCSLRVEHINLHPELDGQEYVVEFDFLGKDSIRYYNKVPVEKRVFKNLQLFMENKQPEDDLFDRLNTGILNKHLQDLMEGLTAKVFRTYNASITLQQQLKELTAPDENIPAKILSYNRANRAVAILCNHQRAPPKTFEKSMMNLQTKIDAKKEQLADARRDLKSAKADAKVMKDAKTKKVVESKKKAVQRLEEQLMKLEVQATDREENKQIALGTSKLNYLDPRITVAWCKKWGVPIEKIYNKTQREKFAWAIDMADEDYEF
DNA nucleotidylexotransferase (Bos taurus), sequence (P06526 whole entry): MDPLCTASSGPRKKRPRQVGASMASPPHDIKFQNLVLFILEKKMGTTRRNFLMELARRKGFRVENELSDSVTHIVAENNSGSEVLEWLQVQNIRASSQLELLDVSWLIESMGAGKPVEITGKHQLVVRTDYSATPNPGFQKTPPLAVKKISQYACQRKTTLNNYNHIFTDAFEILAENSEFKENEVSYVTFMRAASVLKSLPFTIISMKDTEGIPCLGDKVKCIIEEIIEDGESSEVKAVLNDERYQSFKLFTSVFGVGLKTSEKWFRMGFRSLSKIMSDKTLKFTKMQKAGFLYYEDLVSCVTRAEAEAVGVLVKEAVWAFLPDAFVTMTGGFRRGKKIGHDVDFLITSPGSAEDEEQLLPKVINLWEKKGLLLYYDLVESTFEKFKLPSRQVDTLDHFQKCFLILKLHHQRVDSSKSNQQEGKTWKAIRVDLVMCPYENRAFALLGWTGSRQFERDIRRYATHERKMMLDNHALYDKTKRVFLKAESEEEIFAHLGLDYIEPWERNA
Inosine-5'-monophosphate dehydrogenase 2 (Mus musculus), sequence (P24547 whole entry, looked up): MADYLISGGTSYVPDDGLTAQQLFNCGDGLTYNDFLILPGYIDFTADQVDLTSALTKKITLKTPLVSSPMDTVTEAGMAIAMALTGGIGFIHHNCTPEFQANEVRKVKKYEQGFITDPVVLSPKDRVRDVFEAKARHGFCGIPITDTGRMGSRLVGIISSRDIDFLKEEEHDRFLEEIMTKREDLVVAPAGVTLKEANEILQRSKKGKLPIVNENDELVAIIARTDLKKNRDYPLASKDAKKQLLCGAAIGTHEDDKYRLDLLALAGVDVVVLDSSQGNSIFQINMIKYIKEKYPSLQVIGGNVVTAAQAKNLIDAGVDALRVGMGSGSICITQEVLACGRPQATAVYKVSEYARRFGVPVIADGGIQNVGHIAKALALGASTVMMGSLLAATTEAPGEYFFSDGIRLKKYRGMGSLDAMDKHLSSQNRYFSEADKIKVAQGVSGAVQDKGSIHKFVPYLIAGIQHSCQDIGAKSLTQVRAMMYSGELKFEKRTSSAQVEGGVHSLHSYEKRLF
Telomerase reverse transcriptase (Homo sapiens), sequence (O14746 whole entry): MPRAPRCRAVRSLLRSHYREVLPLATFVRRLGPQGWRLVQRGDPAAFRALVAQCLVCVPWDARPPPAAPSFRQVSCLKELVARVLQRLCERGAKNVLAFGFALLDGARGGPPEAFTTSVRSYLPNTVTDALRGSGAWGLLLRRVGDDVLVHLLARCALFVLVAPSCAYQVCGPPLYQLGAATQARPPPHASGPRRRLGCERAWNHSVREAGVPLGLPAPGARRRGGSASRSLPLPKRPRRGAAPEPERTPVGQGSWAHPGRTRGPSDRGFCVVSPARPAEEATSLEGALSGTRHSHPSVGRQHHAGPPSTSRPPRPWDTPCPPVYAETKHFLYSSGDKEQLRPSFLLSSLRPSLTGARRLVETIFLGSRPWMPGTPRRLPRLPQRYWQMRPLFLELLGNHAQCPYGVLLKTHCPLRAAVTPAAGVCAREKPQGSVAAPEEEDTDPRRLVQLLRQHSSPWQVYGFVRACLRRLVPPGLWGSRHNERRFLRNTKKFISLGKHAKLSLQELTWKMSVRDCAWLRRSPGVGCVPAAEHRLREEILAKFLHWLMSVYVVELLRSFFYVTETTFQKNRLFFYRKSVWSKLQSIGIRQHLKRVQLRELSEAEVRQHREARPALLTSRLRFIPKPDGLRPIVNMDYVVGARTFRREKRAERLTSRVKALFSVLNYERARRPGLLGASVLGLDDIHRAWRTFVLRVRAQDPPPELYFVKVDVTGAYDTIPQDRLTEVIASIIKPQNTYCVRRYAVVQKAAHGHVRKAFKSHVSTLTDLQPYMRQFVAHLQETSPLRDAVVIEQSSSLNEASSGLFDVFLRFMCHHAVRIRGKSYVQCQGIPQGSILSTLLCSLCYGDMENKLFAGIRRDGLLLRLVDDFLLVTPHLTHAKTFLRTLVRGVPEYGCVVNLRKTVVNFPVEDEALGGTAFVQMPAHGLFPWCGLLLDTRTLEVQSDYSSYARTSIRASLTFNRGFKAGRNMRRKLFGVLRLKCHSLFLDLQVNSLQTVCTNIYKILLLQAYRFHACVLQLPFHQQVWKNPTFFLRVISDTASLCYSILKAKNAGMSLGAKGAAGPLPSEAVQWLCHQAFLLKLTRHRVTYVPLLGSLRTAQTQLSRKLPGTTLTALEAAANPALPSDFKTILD
DNA polymerase lambda (Homo sapiens), sequence (Q9UGP5 whole entry): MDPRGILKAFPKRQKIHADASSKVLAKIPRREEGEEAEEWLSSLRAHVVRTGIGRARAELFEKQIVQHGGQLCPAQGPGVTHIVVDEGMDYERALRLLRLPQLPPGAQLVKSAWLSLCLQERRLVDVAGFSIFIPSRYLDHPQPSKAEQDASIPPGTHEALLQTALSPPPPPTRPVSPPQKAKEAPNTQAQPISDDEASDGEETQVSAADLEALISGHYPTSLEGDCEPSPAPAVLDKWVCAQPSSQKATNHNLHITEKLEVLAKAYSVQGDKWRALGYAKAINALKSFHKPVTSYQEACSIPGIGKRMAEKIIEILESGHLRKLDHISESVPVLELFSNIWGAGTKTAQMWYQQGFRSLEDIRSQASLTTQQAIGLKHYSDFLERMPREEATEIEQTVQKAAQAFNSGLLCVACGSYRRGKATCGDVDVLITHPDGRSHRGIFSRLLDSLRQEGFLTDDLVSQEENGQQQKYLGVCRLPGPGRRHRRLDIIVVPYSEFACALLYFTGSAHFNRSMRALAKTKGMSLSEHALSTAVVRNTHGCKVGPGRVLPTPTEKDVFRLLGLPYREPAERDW
Polynucleotide kinase (Enterobacteria phage T4), sequence (P06855 whole entry): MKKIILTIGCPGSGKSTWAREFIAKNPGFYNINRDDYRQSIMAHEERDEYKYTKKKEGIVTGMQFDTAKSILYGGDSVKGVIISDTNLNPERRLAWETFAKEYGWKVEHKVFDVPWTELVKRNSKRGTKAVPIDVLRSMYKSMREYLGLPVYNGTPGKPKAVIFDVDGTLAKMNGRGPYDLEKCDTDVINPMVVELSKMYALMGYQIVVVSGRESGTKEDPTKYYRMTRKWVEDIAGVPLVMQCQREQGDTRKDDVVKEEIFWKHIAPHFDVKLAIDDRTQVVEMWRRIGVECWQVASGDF

| SMILES | Activity [1] | Activity [2] | Activity [3] | Activity [4] | Activity [5] | Activity [6] | Activity (Homo sapiens [7]) | Activity (Bos taurus [8]) | Activity (Homo sapiens [9]) | Activity (Homo sapiens [10]) | Activity [11] | Activity [12] | Activity [13] | Activity (Oncorhynchus masou) | Activity (Drosophila melanogaster [14]) | Activity (Drosophila melanogaster [15]) | Activity (Drosophila melanogaster [16]) | Activity [17] | Activity (Escherichia coli) | Activity [18] | other results |
| --- | --- | --- | --- | --- | --- | --- | --- | --- | --- | --- | --- | --- | --- | --- | --- | --- | --- | --- | --- | --- | --- |
| C/C=C/C(=O)C1=C(OC)OC(C)(/C=C/C=C/C(C)O)C1=O (stereo unspecified) | Dose-dependent effect | Dose-dependent effect | Dose-dependent effect | Active | Active | Active | inactive | inactive | inactive | inactive | inactive | inactive | inactive | inactive | inactive | inactive | inactive | inactive | inactive | inactive | Activity (Thermus aquaticus): inactive; Activity (Bos taurus [19]): inactive; Activity [20]: inactive; Activity [21]: inactive; Activity (Escherichia phage T7): inactive; Activity [22]: inactive; Activity [23]: inactive; Activity (Homo sapiens [24]): inactive; Activity [25]: inactive; Activity [26]: inactive; Activity (Oryza sativa): inactive |
| COC1=C(C(=O)CC(C)O)C(=O)C(C)(/C=C/C=C/C(C)O)O1 (stereo unspecified) | Dose-dependent effect | Dose-dependent effect | Dose-dependent effect | Active | Active | Active | inactive | inactive | inactive | inactive | inactive | inactive | inactive | inactive | inactive | inactive | inactive | inactive | inactive | inactive | Activity (Thermus aquaticus): inactive; Activity (Bos taurus [19]): inactive; Activity [20]: inactive; Activity [21]: inactive; Activity (Escherichia phage T7): inactive; Activity [22]: inactive; Activity [23]: inactive; Activity (Homo sapiens [24]): inactive; Activity [25]: inactive; Activity [26]: inactive |
